In brackets after ≈: the same amount, converted by molar mass. Activity calls are given as the source filed them. The calls are words filed in the database; no cut-off is given here.
Assays:
[1] = system: Plasmodium gallinaceum; assay: Antimalarial activity against sporozoite-induced Plasmodium gallinaceum infected in white leghorn chicken assessed as disease cure from parasite infection at 60 mg/kg, sc administered 72 hrs after infection; type: functional, organism-based; set-up: dose 60 mg/kg
[2] = system: Plasmodium gallinaceum; assay: Antimalarial activity against sporozoite-induced Plasmodium gallinaceum infected in white leghorn chicken assessed as disease cure from parasite infection at 240 mg/kg, sc administered 72 hrs after infection; type: functional, organism-based; set-up: dose 240 mg/kg
[3] = system: Staphylococcus aureus; assay: Antibacterial activity against drug-resistant Staphylococcus aureus S18713 by gradient plate test; type: functional
[4] = system: Plasmodium berghei; assay: Antimalarial activity against Plasmodium berghei infected in mouse assessed as disease cure from parasite infection at 320 mg/kg, sc administered 72 hrs after infection; type: functional, organism-based; set-up: dose 320 mg/kg
[5] = system: Plasmodium berghei; assay: Antimalarial activity against Plasmodium berghei infected in mouse assessed as disease cure from parasite infection at 80 mg/kg, sc administered 72 hrs after infection; type: functional, organism-based; set-up: dose 80 mg/kg
[6] = system: Plasmodium gallinaceum; assay: Antimalarial activity against sporozoite-induced Plasmodium gallinaceum infected in white leghorn chicken assessed as disease cure from parasite infection at 30 mg/kg, sc administered 72 hrs after infection; type: functional, organism-based; set-up: dose 30 mg/kg
[7] = system: Plasmodium berghei; assay: Antimalarial activity against Plasmodium berghei infected in mouse assessed as increase in mean survival days of host at 10 mg/kg, sc administered 72 hrs after infection relative to control; type: functional; settings: route subcutaneous
[8] = system: Mycobacterium tuberculosis; assay: Antibacterial activity against Mycobacterium tuberculosis H37Ra by gradient plate test; type: functional
[9] = system: Gallus gallus; assay: Toxicity in sporozoite-induced Plasmodium gallinaceum infected white leghorn chicken assessed as mortality at 60 mg/kg, sc administered 72 hrs after infection measured up to 6 days; type: organism-based; set-up: dose 60 mg/kg, route subcutaneous; settings: in vivo
[10] = system: Gallus gallus; assay: Toxicity in sporozoite-induced Plasmodium gallinaceum infected white leghorn chicken assessed as mortality at 480 mg/kg, sc administered 72 hrs after infection measured up to 6 days; type: organism-based; set-up: dose 480 mg/kg, route subcutaneous; settings: in vivo
[11] = system: Plasmodium gallinaceum; assay: Antimalarial activity against sporozoite-induced Plasmodium gallinaceum infected in white leghorn chicken assessed as disease cure from parasite infection at 480 mg/kg, sc administered 72 hrs after infection; type: functional, organism-based; set-up: dose 480 mg/kg
[12] = system: Escherichia coli; assay: Antibacterial activity against Escherichia coli Vogel by gradient plate test; type: functional
[13] = system: Plasmodium berghei; assay: Antimalarial activity against Plasmodium berghei infected in mouse assessed as increase in mean survival days of host at 80 mg/kg, sc administered 72 hrs after infection relative to control; type: functional; settings: route subcutaneous
[14] = system: Plasmodium berghei; assay: Antimalarial activity against Plasmodium berghei infected in mouse assessed as increase in mean survival days of host at 40 mg/kg, sc administered 72 hrs after infection relative to control; type: functional; settings: route subcutaneous
[15] = system: Staphylococcus aureus; assay: Antibacterial activity against Staphylococcus aureus UC-96 by gradient plate test; type: functional
[16] = system: Plasmodium berghei; assay: Antimalarial activity against Plasmodium berghei infected in mouse assessed as disease cure from parasite infection at 640 mg/kg, sc administered 72 hrs after infection; type: functional, organism-based; set-up: dose 640 mg/kg
[17] = system: Shigella sonnei; assay: Antibacterial activity against Shigella sonnei C-10 by gradient plate test; type: functional
[18] = system: Gallus gallus; assay: Toxicity in sporozoite-induced Plasmodium gallinaceum infected white leghorn chicken assessed as mortality at 15 mg/kg, sc administered 72 hrs after infection measured up to 6 days; type: organism-based; set-up: dose 15 mg/kg, route subcutaneous; settings: in vivo
[19] = system: Gallus gallus; assay: Toxicity in sporozoite-induced Plasmodium gallinaceum infected white leghorn chicken assessed as mortality at 30 mg/kg, sc administered 72 hrs after infection measured up to 6 days; type: organism-based; set-up: dose 30 mg/kg, route subcutaneous; settings: in vivo
[20] = system: Plasmodium berghei; assay: Antimalarial activity against Plasmodium berghei infected in mouse assessed as increase in mean survival days of host at 20 mg/kg, sc administered 72 hrs after infection relative to control; type: functional; settings: route subcutaneous
[21] = system: Gallus gallus; assay: Toxicity in sporozoite-induced Plasmodium gallinaceum infected white leghorn chicken assessed as mortality at 240 mg/kg, sc administered 72 hrs after infection measured up to 6 days; type: organism-based; set-up: dose 240 mg/kg, route subcutaneous; settings: in vivo
[22] = system: Plasmodium gallinaceum; assay: Antimalarial activity against sporozoite-induced Plasmodium gallinaceum infected in white leghorn chicken assessed as disease cure from parasite infection at 15 mg/kg, sc administered 72 hrs after infection; type: functional, organism-based; set-up: dose 15 mg/kg
[23] = system: Pseudomonas aeruginosa; assay: Antibacterial activity against Pseudomonas aeruginosa 28 by gradient plate test; type: functional
[24] = system: Plasmodium berghei; assay: Antimalarial activity against Plasmodium berghei infected in mouse assessed as disease cure from parasite infection at 160 mg/kg, sc administered 72 hrs after infection; type: functional, organism-based; set-up: dose 160 mg/kg
[25] = system: Enterococcus faecalis; assay: Antibacterial activity against Streptococcus faecalis MGH-2 by gradient plate test; type: functional
[26] = system: Plasmodium gallinaceum; assay: Antimalarial activity against sporozoite-induced Plasmodium gallinaceum infected in white leghorn chicken assessed as disease cure from parasite infection at 120 mg/kg, sc administered 72 hrs after infection; type: functional, organism-based; set-up: dose 120 mg/kg
[27] = system: Gallus gallus; assay: Toxicity in sporozoite-induced Plasmodium gallinaceum infected white leghorn chicken assessed as mortality at 120 mg/kg, sc administered 72 hrs after infection measured up to 6 days; type: organism-based; set-up: dose 120 mg/kg, route subcutaneous; settings: in vivo

## Cc1cc(Sc2ccc3nc(N)nc(N)c3c2)ccc1Br
[1]
  Activity: Active
[2]
  Activity: Active
[3]
  MIC: 10 µg/mL (≈ 27.7 µM)
[4]
  Activity: Active
[5]
  Activity: Active
[6]
  Activity: Active
[7]
  MST: 1.9 days
[8]
  MIC: > 25 µg/mL
[9]
  Activity: Toxic
[10]
  Activity: Toxic
[11]
  Activity: Active
[12]
  MIC: 20 µg/mL (≈ 55.4 µM)
[13]
  MST: 11.9 days
[14]
  MST: 7.7 days
[15]
  MIC: 5 µg/mL (≈ 13.8 µM)
[16]
  Activity: Active
[17]
  MIC: 20 µg/mL (≈ 55.4 µM)
[18]
  Activity: Toxic
[19]
  Activity: Toxic
[20]
  MST: 3.5 days
[21]
  Activity: Toxic
[22]
  Activity: Active
[23]
  MIC: > 25 µg/mL
[24]
  Activity: Active
[25]
  MIC: 10 µg/mL (≈ 27.7 µM)
[26]
  Activity: Active
[27]
  Activity: Toxic

From ChEMBL document CHEMBL3272271, “Folate antagonists. 13. 2,4-Diamino-6-](alpha,alpha,alpha-trifluoro-m-tolyl)thio]quinazoline and related 2,4-diamino-6-[(phenyl- and naphthyl)thio]quinazolines, a unique class of antimetabolites with extraordinary antimalarial and antibacterial effects” (J Med Chem, 1978)
